In patent publication US7326574B2, “Compositions and methods for detecting stress-inducible proteins” (Stressgen Biotechnologies Corporation, priority 1999, dated 2008):

What was measured:
HeLa cells = test: Induction of Hsc70, Hsp70A and Hsp70B′ proteins under different induction conditions, Western blotting; type: cell-based, human; conditions: Azetidine 5 μM, 5 hours, CdCl2 100 μM, 2 hours, ZnCl2 250 μM; for Induction of Hsc70, relative protein level: 20 ug total cell lysate
Jurkat cells = test: as above; type: cell-based, human; conditions: Azetidine 5 μM, 5 hours, CdCl2 100 μM, 2 hours, ZnCl2 250 μM
A431 cells = test: as above; type: cell-based, human; conditions: Azetidine 5 μM, 5 hours, CdCl2 100 μM, 2 hours, ZnCl2 250 μM
[1] = tested on: HeLa, Jurkat and A-431 human cell lines; test: Relative induction of Hsc70, Hsp70A and Hsp70B′ proteins; type: cell-based
hsp70B′ mRNA = conditions: Leung et al., Biochem. J. 267:125-132, 1990; cited from earlier work
immunizing peptide = test: Anti-peptide titre ELISA with peptide on the solid phase; type: binding, human; conditions: rabbit host
Description: Methods: Hsp70B′ Antibodies were produced as follows. Hsp70B′ antibodies were produced in rabbits, goats and mice with either synthetic peptides or recombinant Hsp70B′ protein as immunogen. Eight peptides were chosen from the human Hsp70B′ amino acid sequence. One of the Hsp70B′ peptides, the NT peptide […](C) (SEQ ID NO:9) corresponded to an N-terminal fragment. […] Sera were collected at various time points and the antibody response to the immunizing protein or peptide was evaluated in an indirect enzyme immunoassay (EIA). Titres were established as the dilution factor at which the absorbance in the test sample was equal to 0.2 optical density units. […]
Anti-peptide titre was determined as follows. […] The anti-peptide titres in the rabbits, goats, and mice were determined in an ELISA with peptide on the solid phase. […]
Biotinylated secondary antibodies (100 μl) were added to each microtitre plate test well and incubated for four hours at room temperature. […] The plates were read at 414 λ, 20 minutes following the addition of substrate. Titres were established as the reciprocal dilution factor at which the test sample was equal to 0.2 absorbance units.

Hsp70B′ [2] = target: T1, Hsp70B′ (Homo sapiens, UniProt P17066); test: Indirect EIA, relative titre index; type: binding
T1 construct: E. coli BL21 (DE3) cells harboring the expression plasmid for full length human Hsp70B′; made in house; host or cells: E. coli BL21 (DE3) / BLR (DE3), pET24a

recombinant bovine Hsc70 = target: T2, recombinant bovine Hsc70 (Bos taurus, UniProt P19120); test: Indirect EIA, relative titre index; type: binding; conditions: Hsc70 Protein; relative to irrelevant antibody
T2 construct: purchased Stressgen Biotechnologies SPP-751

recombinant human Hsp70A = target: T3, recombinant human Hsp70A (Homo sapiens, UniProt P0DMV8); test: Indirect EIA, relative titre index; type: binding; conditions: Hsp70A Protein; relative to irrelevant antibody
T3 construct: purchased Stressgen Biotechnologies SPP-755

[3] = target: T4, recombinant hamster Grp78 (Mesocricetus auratus, UniProt P07823); test: Indirect EIA, relative titre index; type: binding; conditions: Grp78 Protein; relative to irrelevant antibody
T4 construct: purchased Stressgen Biotechnologies SPP-765

unconjugated CB2 peptide = target: T5, unconjugated CB2 peptide (Homo sapiens, UniProt P17066); test: Indirect EIA, relative titre index; type: binding; conditions: relative to irrelevant antibody
T5 construct: The CB peptide was also resynthesized on a separate occasion and designated CB2; purchased Research Genetics, Inc; host or cells: chemical synthesis

unconjugated ECB peptide = target: T6, unconjugated ECB peptide (Homo sapiens, UniProt P17066); test: Indirect EIA, relative titre index; type: binding; conditions: relative to irrelevant antibody
T6 construct: purchased Research Genetics, Inc; host or cells: chemical synthesis

unconjugated TCB peptide = target: T7, unconjugated TCB peptide (Homo sapiens, UniProt P17066); test: Indirect EIA, relative titre index; type: binding; conditions: relative to irrelevant antibody
T7 construct: purchased Research Genetics, Inc; host or cells: chemical synthesis

unconjugated CE peptide = target: T8, unconjugated CE peptide (Homo sapiens, UniProt P17066); test: Indirect EIA, relative titre index; type: binding; conditions: relative to irrelevant antibody
T8 construct: purchased Research Genetics, Inc; host or cells: chemical synthesis

Hsp70B′ [4] = target: T1, Hsp70B′; test: Western blotting of HSP70 family members; type: binding; conditions: SDS-denatured recombinant protein; band intensity 0-3
[5] = target: T9, 68 kDa (Hsp70B′) protein from HeLa cell lysates (Homo sapiens, UniProt P17066); test: Immunoblotting of unstressed and heat stressed human cell lysates; type: binding; parameters: key to Reactivity with 68 kDa (Hsp70B′) protein, HeLa: 0 = no signal; 3 = a very strong signal
T9 construct: endogenous in cells; host or cells: HeLa (ATCC CCL-2), unstressed and heat stressed

E. coli DnaK = E. coli DnaK (Escherichia coli, UniProt P0A6Y8)
[6] = target: recombinant M. tuberculosis Hsp71 (Mycobacterium tuberculosis, UniProt P9WMJ9)
recombinant M. tuberculosis Hsp71, sequence (P9WMJ9 whole entry): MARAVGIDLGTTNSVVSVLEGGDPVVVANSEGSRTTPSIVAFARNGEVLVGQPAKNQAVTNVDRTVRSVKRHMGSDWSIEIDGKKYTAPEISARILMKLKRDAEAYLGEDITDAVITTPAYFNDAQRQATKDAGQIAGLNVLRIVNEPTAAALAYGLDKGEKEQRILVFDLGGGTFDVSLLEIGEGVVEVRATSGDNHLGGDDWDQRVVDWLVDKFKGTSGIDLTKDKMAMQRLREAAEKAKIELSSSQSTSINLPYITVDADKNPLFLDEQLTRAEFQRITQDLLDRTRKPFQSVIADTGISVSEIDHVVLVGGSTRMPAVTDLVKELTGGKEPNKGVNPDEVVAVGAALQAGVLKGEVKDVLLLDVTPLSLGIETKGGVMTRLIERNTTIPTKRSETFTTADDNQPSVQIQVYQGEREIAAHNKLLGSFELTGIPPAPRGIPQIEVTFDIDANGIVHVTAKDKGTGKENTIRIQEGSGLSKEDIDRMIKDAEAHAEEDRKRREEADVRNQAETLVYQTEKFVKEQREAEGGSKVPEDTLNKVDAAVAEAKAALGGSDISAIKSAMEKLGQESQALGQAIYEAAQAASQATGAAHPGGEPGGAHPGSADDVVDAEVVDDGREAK

T1 sequence (P17066 whole entry): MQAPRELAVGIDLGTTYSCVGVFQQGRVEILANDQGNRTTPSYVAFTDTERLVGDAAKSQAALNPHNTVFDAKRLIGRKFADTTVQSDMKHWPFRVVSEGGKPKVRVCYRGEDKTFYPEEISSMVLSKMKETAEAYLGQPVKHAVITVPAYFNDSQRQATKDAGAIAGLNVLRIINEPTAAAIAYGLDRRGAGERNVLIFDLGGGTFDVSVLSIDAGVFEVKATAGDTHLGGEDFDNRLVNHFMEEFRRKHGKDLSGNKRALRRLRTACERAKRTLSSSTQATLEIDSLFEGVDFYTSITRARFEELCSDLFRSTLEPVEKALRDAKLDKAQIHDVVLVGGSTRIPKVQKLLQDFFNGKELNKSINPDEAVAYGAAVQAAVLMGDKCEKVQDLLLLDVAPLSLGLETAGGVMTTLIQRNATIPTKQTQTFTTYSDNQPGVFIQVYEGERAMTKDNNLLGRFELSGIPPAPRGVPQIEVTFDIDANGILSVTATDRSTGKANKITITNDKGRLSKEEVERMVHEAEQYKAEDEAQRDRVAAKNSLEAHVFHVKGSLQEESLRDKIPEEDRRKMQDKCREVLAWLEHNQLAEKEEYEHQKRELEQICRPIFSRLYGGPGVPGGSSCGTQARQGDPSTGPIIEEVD
T9 sequence (P17066 whole entry): as above
T2 sequence (P19120 whole entry): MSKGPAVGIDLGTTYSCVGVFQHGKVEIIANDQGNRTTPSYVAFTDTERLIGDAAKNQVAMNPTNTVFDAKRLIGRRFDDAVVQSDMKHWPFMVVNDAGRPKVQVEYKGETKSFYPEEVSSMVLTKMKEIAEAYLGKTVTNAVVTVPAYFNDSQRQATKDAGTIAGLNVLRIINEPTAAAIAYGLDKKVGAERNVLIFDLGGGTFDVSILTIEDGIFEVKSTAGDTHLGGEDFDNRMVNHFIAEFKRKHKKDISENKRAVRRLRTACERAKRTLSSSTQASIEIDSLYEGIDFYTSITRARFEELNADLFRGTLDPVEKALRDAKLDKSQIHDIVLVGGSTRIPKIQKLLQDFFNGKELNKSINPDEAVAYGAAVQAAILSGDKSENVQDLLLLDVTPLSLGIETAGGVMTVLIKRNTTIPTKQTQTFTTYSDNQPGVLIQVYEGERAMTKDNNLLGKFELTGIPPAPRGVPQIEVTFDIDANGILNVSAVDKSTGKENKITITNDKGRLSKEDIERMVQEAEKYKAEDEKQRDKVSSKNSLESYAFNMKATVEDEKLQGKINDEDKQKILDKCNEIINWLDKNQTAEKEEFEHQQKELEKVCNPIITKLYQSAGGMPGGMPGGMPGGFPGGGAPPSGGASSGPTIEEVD
T4 sequence (P07823 19-654): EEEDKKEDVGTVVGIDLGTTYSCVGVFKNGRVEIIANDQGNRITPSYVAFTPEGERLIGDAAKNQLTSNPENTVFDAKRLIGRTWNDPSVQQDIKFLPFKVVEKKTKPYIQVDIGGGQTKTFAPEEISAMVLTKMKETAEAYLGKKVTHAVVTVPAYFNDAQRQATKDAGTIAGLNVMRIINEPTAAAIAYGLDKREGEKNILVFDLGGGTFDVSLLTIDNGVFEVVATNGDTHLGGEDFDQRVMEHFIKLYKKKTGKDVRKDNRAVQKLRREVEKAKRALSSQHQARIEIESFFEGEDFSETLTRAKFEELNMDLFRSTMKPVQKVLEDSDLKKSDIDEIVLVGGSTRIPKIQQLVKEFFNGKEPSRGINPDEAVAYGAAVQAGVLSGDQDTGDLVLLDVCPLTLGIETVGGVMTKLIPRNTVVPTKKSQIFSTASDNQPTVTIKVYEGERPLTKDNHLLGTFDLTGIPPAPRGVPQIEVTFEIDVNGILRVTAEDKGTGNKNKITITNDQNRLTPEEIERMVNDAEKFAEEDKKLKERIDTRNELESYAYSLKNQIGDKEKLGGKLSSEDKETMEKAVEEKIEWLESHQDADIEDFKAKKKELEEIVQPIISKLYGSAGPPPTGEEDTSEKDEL
E. coli DnaK, sequence (P0A6Y8 whole entry): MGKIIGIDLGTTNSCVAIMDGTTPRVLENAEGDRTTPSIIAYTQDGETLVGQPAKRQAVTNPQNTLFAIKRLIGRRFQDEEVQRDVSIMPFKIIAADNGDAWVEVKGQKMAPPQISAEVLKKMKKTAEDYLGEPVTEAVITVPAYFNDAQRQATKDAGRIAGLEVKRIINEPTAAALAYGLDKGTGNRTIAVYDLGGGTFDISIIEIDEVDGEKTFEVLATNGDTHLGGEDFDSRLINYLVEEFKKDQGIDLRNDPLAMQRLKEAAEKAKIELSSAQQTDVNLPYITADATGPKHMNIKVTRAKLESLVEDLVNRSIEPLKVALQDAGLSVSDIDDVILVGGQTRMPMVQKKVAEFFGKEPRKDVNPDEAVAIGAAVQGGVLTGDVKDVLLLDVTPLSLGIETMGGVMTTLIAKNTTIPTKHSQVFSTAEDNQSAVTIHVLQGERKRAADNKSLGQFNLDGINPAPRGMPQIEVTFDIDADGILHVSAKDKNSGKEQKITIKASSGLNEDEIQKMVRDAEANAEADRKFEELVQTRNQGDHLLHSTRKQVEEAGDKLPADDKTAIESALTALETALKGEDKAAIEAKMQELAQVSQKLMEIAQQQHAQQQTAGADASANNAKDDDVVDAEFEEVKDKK
T3 sequence (P0DMV8 whole entry): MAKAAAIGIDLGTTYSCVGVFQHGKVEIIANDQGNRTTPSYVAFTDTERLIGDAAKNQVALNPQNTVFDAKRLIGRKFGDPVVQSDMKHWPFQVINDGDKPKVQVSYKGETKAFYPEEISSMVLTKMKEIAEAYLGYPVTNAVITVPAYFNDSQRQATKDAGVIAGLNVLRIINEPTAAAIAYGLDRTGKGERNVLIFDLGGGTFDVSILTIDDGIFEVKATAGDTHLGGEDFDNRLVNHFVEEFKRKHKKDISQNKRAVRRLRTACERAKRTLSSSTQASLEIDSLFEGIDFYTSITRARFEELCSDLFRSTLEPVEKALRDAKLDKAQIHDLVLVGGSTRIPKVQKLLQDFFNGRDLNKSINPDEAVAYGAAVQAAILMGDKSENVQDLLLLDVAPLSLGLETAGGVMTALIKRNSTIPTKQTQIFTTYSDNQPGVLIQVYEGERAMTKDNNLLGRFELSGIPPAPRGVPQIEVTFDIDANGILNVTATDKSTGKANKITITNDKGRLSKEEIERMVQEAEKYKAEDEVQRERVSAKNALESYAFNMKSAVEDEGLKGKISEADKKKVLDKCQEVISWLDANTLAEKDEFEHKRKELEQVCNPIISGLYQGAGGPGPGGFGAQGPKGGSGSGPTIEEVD

[Cl-].[Cl-].[Zn+2] [ZnCl2]
Induction of Hsp70A, relative protein level (HeLa cells): +3
Induction of Hsp70A/B′, relative protein level (HeLa cells): +3
Induction of Hsp70B′, relative protein level (HeLa cells): +1
Induction of Hsc70, relative protein level (HeLa cells): +3
Induction of Hsc70, relative protein level (Jurkat cells): +3
Induction of Hsp70A, relative protein level (Jurkat cells): +2
Induction of Hsp70A/B′, relative protein level (Jurkat cells): +1
Induction of Hsp70B′, relative protein level (Jurkat cells): +1
Induction of Hsc70, relative protein level (A431 cells): +3
Induction of Hsp70A, relative protein level (A431 cells): +2
Induction of Hsp70A/B′, relative protein level (A431 cells): +3
Induction of Hsp70B′, relative protein level (A431 cells): +2
Expression of the constitutive Hsc70 protein [1]: not affected
Induction of Hsp70B′ protein [1]: induced

[Cl][Cd][Cl] [CdCl2]
Induction of Hsp70A, relative protein level (HeLa cells): +3
Induction of Hsp70A/B′, relative protein level (HeLa cells): +3
Induction of Hsp70B′, relative protein level (HeLa cells): +2
Induction of Hsc70, relative protein level (HeLa cells): +3
Induction of Hsc70, relative protein level (Jurkat cells): +3
Induction of Hsp70A, relative protein level (Jurkat cells): +2
Induction of Hsp70A/B′, relative protein level (Jurkat cells): +2
Induction of Hsp70B′, relative protein level (Jurkat cells): +3
Induction of Hsc70, relative protein level (A431 cells): +3
Induction of Hsp70A, relative protein level (A431 cells): +2
Induction of Hsp70A/B′, relative protein level (A431 cells): +3
Induction of Hsp70B′, relative protein level (A431 cells): +1
Expression of the constitutive Hsc70 protein [1]: not affected
Induction of Hsp70B′ protein [1]: induced
hsp70B′ mRNA after treatment (hsp70B′ mRNA): only trace amounts

ECB (VPGGSSCGTQARQGDPSTGPI)
# Animals Responding (immunizing peptide): 3/3
Antisera Titer (EIA) (immunizing peptide; individual animals, reciprocal dilution giving 0.2 absorbance units): >204800
Relative Titre Index (Hsp70B′ [2]; Hsp70B′ Protein, relative to irrelevant antibody, rabbit antibody): ≧41
Preferential reactivity with Hsp70B′ over other HSP70 protein homologs (Hsp70B′ [2]; based on absolute relative titre index values): 41 fold
Relative Titre Index (recombinant bovine Hsc70): 1
Relative Titre Index (recombinant human Hsp70A): 1
Relative Titre Index [3]: 1
Relative Titre Index (unconjugated CB2 peptide): ≧86
Relative Titre Index (unconjugated ECB peptide): ≧129
Relative Titre Index (unconjugated TCB peptide): *1
Relative Titre Index (unconjugated CE peptide): 1
Hsp70B′ Reactivity Rec. protein (Hsp70B′ [4]): 3
Reactivity with 68 kDa (Hsp70B′) protein, HeLa HS ([5]; heat stressed HeLa lysate, 10-20 μg): 3
Antisera that specifically detected Hsp70B′ in immunoblots (fraction of rabbits) ([5]; sera from three individual rabbits): ⅓
Reactivity with 68 kDa (Hsp70B′) protein, HeLa ([5]; unstressed HeLa lysate, 10-20 μg): 0
Relative Titre Index (E. coli DnaK): 1
Relative Titre Index [6]: 1
